Data from PMC9115767 (European journal of medicinal chemistry, 2021).
Where two headings read alike, the source gives them in different places.

Columns and labels:
[1] = tested on: HIV-2 ROD; assay: microbe, parasite or virus in culture; assay type: cell-based
[2] = tested on: HIV-1 IIIB; assay type: cell-based
[3] = in vitro; details: human, microsomes
[4] = tested on: MT-4 cells
[5] = selectivity index, ratio CC50/EC50, HIV-1 IIIB
[6] = selectivity index, ratio CC50/EC50, HIV-2 ROD

For `COc1ccc(N(C)C(=O)[C@H](Cc2cc(F)cc(F)c2)NC(=O)CN2CCN(CC(=O)N[C@@H](Cc3ccccc3)C(=O)N(C)c3ccccc3)CC2=O)cc1` [Q-c6, (S)-3-(3,5-difluorophenyl)-N-(4-methoxyphenyl)-N-methyl-2-(2-(4-(2-(((S)-1-(methyl(phenyl)amino)-1-oxo-3-phenylpropan-2-yl)amino)-2-oxoethyl)-2-oxopiperazin-1-yl)acetamido)propenamide], the “SI HIV ROD” value [1] was <1.00.

In the case of `COc1ccc(N(C)C(=O)[C@H](Cc2ccccc2)NC(=O)CN2CCNCC2=O)cc1` [Q-b2, (S)–N-(4-methoxyphenyl)-N-methyl-2-(2-(2-oxopiperazin-1-yl)acetamido)-3-phenylpropanamide], the “SI HIV IIIB” value [2, 5] is reported as >3.30 and the “SI HIV ROD” value [1, 6] is reported as >8.94.

For `COc1ccc(N(C)C(=O)[C@H](Cc2ccccc2)NC(=O)CN2CCN(CC(=O)N[C@@H](Cc3cc(F)cc(F)c3)C(=O)N(C)c3ccc(OC)cc3)C(=O)C2)cc1` [Q-c5, (S)-3-(3,5-difluorophenyl)-N-(4-methoxyphenyl)-2-(2-(4-(2-(((S)-1-((4-methoxyphenyl)(methyl)amino)-1-oxo-3-phenylpropan-2-yl)amino)-2-oxoethyl)-2-oxopiperazin-1-yl)acetamido)-N-methyl-propanamide], the “SI HIV ROD” value [1, 6] was <1.00.

In the case of `COc1ccc(N(C)C(=O)[C@H](Cc2ccccc2)NC(=O)CN2CCN(CC(=O)N[C@@H](Cc3ccccc3)C(=O)N(C)c3ccccc3)CC2=O)cc1` [Q-c3, (S)–N-(4-methoxyphenyl)-N-methyl-2-(2-(4-(2-(((S)-1-(methyl(phenyl)amino)-1-oxo-3-phenylpropan-2-yl)amino)-2-oxoethyl)-2-oxopiperazin-1-yl)acetamido)-3-phenylpropanamid], the “SI HIV IIIB” value [2, 5] is reported as <1.00 and the “SI HIV ROD” value [1, 6] is reported as <1.00.

Work on `COc1ccc(N(C)C(=O)[C@H](Cc2ccccc2)NC(=O)CN2CCN(S(=O)(=O)c3ccc(N)cc3)CC2=O)cc1` [Compound 11l, reference compound] yielded a CLint scaled at 3 h, 100 µM [3] of 356 mL/min/kg.

With `CN(C(=O)[C@H](Cc1ccccc1)NC(=O)CN1CCN(CC(=O)N[C@@H](Cc2ccccc2)C(=O)N(C)c2ccccc2)C(=O)C1)c1ccccc1` [Q-c7, (2S,2′S)-2,2'-((2,2'-(2-oxopiperazine-1,4-diyl)bis(acetyl))bis(azanediyl)) bis(N-methyl-N,3-diphenylpropanamide)] the “SI HIV IIIB” value [2] was <1.00, the “SI HIV ROD” value [1] was <1.00 and the EC50 ([1]; Human immunodeficiency virus 2, MT4, read-out: EC50 HIV ROD) was > 32.6 µM.

In the case of `COc1ccc(N(C)C(=O)[C@H](Cc2ccccc2)NC(=O)CN2CC(=O)N(CC(=O)N[C@@H](Cc3ccccc3)C(=O)N(C)c3ccc(OC)cc3)CC2=O)cc1` [Q-a1, (2S,2′S)-2,2'-((2,2'-(2,5-dioxopiperazine-1,4-diyl)bis(acetyl))bis(azanediyl)) bis(N-(4-methoxyphenyl)-N-methyl-3-phenylpropanamide)], the “SI HIV ROD” value [1] is reported as <1.00.

For `COc1ccc(N(C)C(=O)[C@H](Cc2ccccc2)NC(=O)CN2CCN(CC(=O)N[C@@H](Cc3ccccc3)C(=O)N(C)c3ccccc3)C(=O)C2)cc1` [Q-c9, (S)–N-(4-methoxyphenyl)-N-methyl-2-(2-(4-(2-(((S)-1-(methyl(phenyl)amino)-1-oxo-3-phenylpropan-2-yl)amino)-2-oxoethyl)-3-oxopiperazin-1-yl)acetamido)-3-phenylpropanamide], the “SI HIV IIIB” value [2, 5] was ≤6.45 and the “SI HIV ROD” value [1, 6] was <1.00.

For `CN(C(=O)[C@H](Cc1ccccc1)NC(=O)CN1CCNCC1=O)c1ccccc1` [Q-b1, (S)–N-methyl-2-(2-(2-oxopiperazin-1-yl)acetamido)-N,3-diphenyl propanamide], the CC50 [4] was > 317 µM, the “SI HIV IIIB” value [2] was >1.28 and the “SI HIV ROD” value [1] was >1.19.

With `COc1ccc(N(C)C(=O)[C@H](Cc2ccccc2)NC(=O)CN2CCN(CC(=O)N[C@@H](Cc3ccccc3)C(=O)N(C)c3ccc(OC)cc3)C(=O)C2)cc1` [Q-c1, (2S,2′S)-2,2'-((2,2'-(2-oxopiperazine-1,4-diyl)bis(acetyl))bis(azanediyl)) bis(N-(4-methoxyphenyl)-N-methyl-3-phenylpropanamide)] the “SI HIV IIIB” value [2] was ≤4.29 and the “SI HIV ROD” value [1] was <1.00.

For `COc1ccc(N(C)C(=O)[C@H](Cc2cc(F)cc(F)c2)NC(=O)CN2CC(=O)N(CC(=O)N[C@@H](Cc3cc(F)cc(F)c3)C(=O)N(C)c3ccc(OC)cc3)CC2=O)cc1` [Q-a2, (2S,2S)-22′-((2,2'-(2,5'-dioxopiperazine-1,4-diyl)bis(acetyl))bis(azanediyl)) bis(3-(3,5-di-N-difluorophenyl)-N-(4-methoxyphenyl)-N-methylpropanamide)], the CLint scaled at 3 h, 100 µM [3] was 760 mL/min/kg.

With `COc1ccc(N(C)C(=O)[C@H](Cc2cc(F)cc(F)c2)NC(=O)CN2CCN(CC(=O)N[C@@H](Cc3ccccc3)C(=O)N(C)c3ccccc3)C(=O)C2)cc1` [Q-c8, (S)-3-(3,5-difluorophenyl)-N-(4-methoxyphenyl)-N-methyl-2-(2-(4-(2-(((S)-1-(methyl(phenyl)amino)-1-oxo-3-phenylpropan-2-yl)amino)-2-oxoethyl)-3-oxopiperazin-1-yl)acetamido)propenamide] the “SI HIV ROD” value [1] was <1.00.

In the case of `COc1ccc(N(C)C(=O)[C@H](Cc2cc(F)cc(F)c2)NC(=O)CN2CCN(CC(=O)N[C@@H](Cc3ccccc3)C(=O)N(C)c3ccc(OC)cc3)C(=O)C2)cc1` [Q-c2, (S)-3-(3,5-difluorophenyl)-N-(4-methoxyphenyl)-2-(2-(4-(2-(((S)-1-((4-methoxyphenyl)(methyl)amino)-1-oxo-3-phenylpropan-2-yl)amino)-2-oxoethyl)-3-oxopiperazin-1-yl)acetamido)-N-methylpropanamide], the “SI HIV ROD” value [1, 6] is reported as <1.00.
